Measured values as given in patent US20240190855A1 (Relay Therapeutics, Inc., priority 2021, published 2024).

The molecules below were run against T1, CDK2/Cyclin E complex (Homo sapiens, UniProt P24941) (assay: CDK2/Cyclin E fluorescence-based microfluidic mobility shift assay (CDK2 Biochemical Caliper Assay)). Conditions: read-out: Biochemical CDK2/CyclinE Caliper IC50.
T1 construct: purchased Eurofins 14-475
In short: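 Microfluidic mobility-shift readout after EDTA termination measured phosphorylation of fluorescent FL Peptide 18 (1.5 uM final) in a 20 hr room-temperature reaction. Compounds were tested at 11 concentrations (3-fold).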

Row | Structure (SMILES) | IC50
1 | COCC1(NC(=O)O[C@@H]2CO[C@H](c3cc(NC(=O)c4cc(COC(F)(F)F)nn4C)n[nH]3)C2)CC1 [Example 894] | ≤ 100 nM
2 | Cc1cc(CC(=O)Nc2cc([C@H]3CC[C@@H](Oc4ccccc4)C3)[nH]n2)on1 (single isomer, unassigned) [Example 351] | 100 to 250 nM
3 | COCc1cc2c(Nc3cc([C@H]4C[C@@H](COc5cn[nH]c5C(C)(C)C)C4)[nH]n3)nccn2n1 [Example 630] | ≤ 100 nM
4 | Cc1cc(CC(=O)Nc2cc([C@H]3CC[C@@H](Oc4ccccc4C(C)C)C3)[nH]n2)on1 (single isomer, unassigned) [Example 389] | 250 to 1000 nM
5 | Cn1nc(OC(F)(F)F)cc1C(=O)Nc1cc([C@H]2C[C@@H](OC(=O)NC3(C)CC3)CO2)[nH]n1 [Example 787] | ≤ 100 nM
6 | COCc1cc(C(=O)Nc2cc([C@@H]3CC[C@@H](c4ccc(C)cn4)C3)[nH]n2)n(C)n1 (single isomer, unassigned) [Example 600] | 1000 to 100000 nM
7 | Cc1cc(CC(=O)Nc2cc([C@H]3CC[C@@H](NC(=O)CC(C)C)C3)[nH]n2)on1 (single isomer, unassigned) [Example 129] | 1000 to 100000 nM
8 | COCc1cc2c(Nc3cc([C@H]4C[C@@H](OC(=O)NC5(C(F)F)CC5)CO4)[nH]n3)nccn2n1 [Example 644] | ≤ 100 nM
9 | COCc1cc(C(=O)Nc2cc([C@H]3CC[C@@H](Oc4nnccc4C4CC4)C3)[nH]n2)n(C)n1 (single isomer, unassigned) [Example 470] | ≤ 100 nM
10 | CC(C)c1ccnnc1O[C@H]1CO[C@@H](c2cc(Nc3nccn4nccc34)n[nH]2)C1 [Example 464] | ≤ 100 nM
11 | Cc1ccc(O[C@@H]2CC[C@H](c3cc(NC(=O)Cc4cc(C)no4)n[nH]3)C2)nn1 [Example 397] | 250 to 1000 nM
12 | CC(C)NC(=O)OC[C@H]1C[C@H](c2cc(Nc3nccc4ncsc34)n[nH]2)C1 [Example 457] | 250 to 1000 nM
13 | CC1(NC(=O)O[C@H]2CO[C@@H](c3cc(NC(=O)c4cnn(CCOC(F)(F)F)c4)n[nH]3)C2)CC1 [Example 886] | ≤ 100 nM
14 | CC(C)NC(=O)O[C@H]1CC[C@@H](c2cc(Nc3ncnc4ncccc34)n[nH]2)C1 (single isomer, unassigned) [Example 401] | ≤ 100 nM
15 | CC1(C)NC(=O)c2ccc(Nc3cc([C@H]4C[C@@H](OC(=O)NC56CC(C5)C6)CO4)[nH]n3)nc21 [Example 751] | ≤ 100 nM
16 | COCc1cc2c(Nc3cc([C@@H]4C[C@H](OC(=O)N[C@H](C)C5CC5)CO4)[nH]n3)nccn2n1 [Example 765] | ≤ 100 nM
17 | Cc1cc(CC(=O)Nc2cc([C@@H]3CC[C@H](Oc4cccnc4)C3)[nH]n2)on1 (single isomer, unassigned) [Example 340] | 1000 to 100000 nM
18 | COCc1cc2c(Nc3cc([C@H]4C[C@@H](OC(=O)N[C@@H](C)C5CC5)CO4)[nH]n3)nccn2n1 [Example 656] | ≤ 100 nM
19 | Cc1cc(C)n2ccnc(Nc3cc(C4CCCC4)[nH]n3)c12 [Example 795] | 1000 to 100000 nM
20 | COCc1cc(C(=O)Nc2cc([C@H]3C[C@@H](OC(=O)NC4(C)CC4)CO3)[nH]n2)n(C)n1 [Example 880] | ≤ 100 nM
21 | COCc1cc2c(Nc3cc([C@H]4C[C@@H](COc5[nH]ncc5C(C)(C)C)C4)[nH]n3)nccn2n1 [Example 708] | ≤ 100 nM
22 | Cc1cc(CC(=O)Nc2cc([C@@H]3CC[C@H](CC(=O)O)C3)[nH]n2)on1 (single isomer, unassigned) [Example 342] | 1000 to 100000 nM

Row | Structure (SMILES) | IC50
23 | COCc1cc(C(=O)Nc2cc([C@H]3C[C@@H](COc4cn(C)nc4C(C)(C)C)C3)[nH]n2)n(C)n1 [Example 642] | 100 to 250 nM
24 | COCc1cc(C(=O)Nc2cc([C@H]3C[C@@H](COc4[nH]ncc4C(C)C)C3)[nH]n2)n(C)n1 [Example 689] | ≤ 100 nM
25 | COCc1cc(C(=O)Nc2cc([C@@H]3CC[C@@H](c4cc(C(C)C)ncn4)C3)[nH]n2)n(C)n1 (single isomer, unassigned) [Example 604] | 1000 to 100000 nM
26 | Cc1cc(CC(=O)Nc2nc(C3CCCC3)c[nH]2)on1 [Example 43] | 1000 to 100000 nM
27 | CC(C)NC(=O)O[C@H]1CC[C@@H](c2cc(Nc3nccn4nc(C(F)(F)F)cc34)n[nH]2)C1 (single isomer, unassigned) [Example 501] | ≤ 100 nM
28 | Cc1cc(CC(=O)Nc2cc([C@@H]3CC[C@@H](CC(=O)O)C3)[nH]n2)on1 (single isomer, unassigned) [Example 344] | 1000 to 100000 nM
29 | COCc1cc2c(Nc3cc([C@H]4C[C@@H](COc5nncn5C5(C)CC5)C4)[nH]n3)nccn2n1 [Example 690] | ≤ 100 nM
30 | Cc1cc(CC(=O)Nc2cc([C@@H]3CC[C@H](Oc4nnccc4C)C3)[nH]n2)on1 (single isomer, unassigned) [Example 120] | ≤ 100 nM
31 | CC(C)NC(=O)O[C@@H]1CC[C@H](c2cc(Nc3ccc4c(c3)C(C)(C)NC4=O)n[nH]2)C1 (single isomer, unassigned) [Example 548] | ≤ 100 nM
32 | COCc1cc2c(Nc3cc([C@H]4C[C@@H](OC(=O)NC5(CF)CC5)CO4)[nH]n3)nccn2n1 [Example 680] | ≤ 100 nM
33 | COCc1cc(C(=O)Nc2cc([C@H]3CC[C@H](c4ccc(C)[nH]c4=O)C3)[nH]n2)n(C)n1 (racemic) [Example 517] | 1000 to 100000 nM
34 | COCc1cc(C(=O)Nc2cc([C@H]3CC[C@H](Cc4ncc(C)s4)C3)[nH]n2)n(C)n1 (single isomer, unassigned) [Example 557] | 1000 to 100000 nM
35 | COCc1cc2c(Nc3cc([C@H]4C[C@@H](OC(=O)NC5(C6CC6)CC5)CO4)[nH]n3)nccn2n1 [Example 702] | ≤ 100 nM
36 | CC(C)c1ccnnc1OC[C@H]1C[C@@H](c2cc(Nc3nccn4nccc34)n[nH]2)C1 [Example 488] | ≤ 100 nM
37 | COCc1cc(C(=O)Nc2cc([C@H]3C[C@]4(C3)NC(=O)N(CC(C)C)C4=O)n[nH]2)n(C)n1 [Example 541] | 1000 to 100000 nM
38 | COCc1cc(C(=O)Nc2cc([C@@H]3CC[C@H](Oc4cncc(C)c4)C3)[nH]n2)n(C)n1 (single isomer, unassigned) [Example 384] | 1000 to 100000 nM
39 | Cc1cc(CC(=O)Nc2cc([C@H]3CC[C@@H](OC(=O)[C@H](N)C(C)C)C3)[nH]n2)on1 (single isomer, unassigned) [Example 450] | ≤ 100 nM
40 | COCc1cc(C(=O)Nc2cc([C@H]3C[C@@H](COc4[nH]ncc4C(C)(C)C)C3)[nH]n2)n(C)n1 [Example 691] | ≤ 100 nM
41 | CC(C)NC(=O)O[C@@H]1CC[C@H](c2cc(Nc3nccn4nc(C(F)(F)F)cc34)n[nH]2)C1 (single isomer, unassigned) [Example 500] | ≤ 100 nM
42 | Cc1cc(Nc2cc(C3CCCC3)[nH]n2)c2c(F)cccc2n1 [Example 812] | 1000 to 100000 nM
43 | COCc1cn2c(Nc3cc([C@@H]4C[C@H](OC(=O)NC5(C)CC5)CO4)[nH]n3)nccc2n1 [Example 921] | ≤ 100 nM
44 | Cc1cc(CC(=O)Nc2cc([C@H]3C[C@@H](OC(=O)NC4(C)CC4)CO3)[nH]n2)on1 (single isomer, unassigned) [Example 101] | ≤ 100 nM

Row | Structure (SMILES) | IC50
45 | Cc1cc(CC(=O)Nc2cc(C3(C)CCCC3)[nH]n2)on1 [Example 47] | 1000 to 100000 nM
46 | COCc1cc2c(Nc3cc([C@@H]4C[C@H](OC(=O)NC5(C)CC5)CO4)[nH]n3)nccn2n1 [Example 620] | ≤ 100 nM
47 | CC1(NC(=O)O[C@H]2CO[C@@H](c3cc(Nc4ccnc5nccn45)n[nH]3)C2)CC1 [Example 748] | ≤ 100 nM
48 | COCc1cc(C(=O)Nc2cc([C@@H]3CC[C@H](c4ccc(C)[nH]c4=O)C3)[nH]n2)n(C)n1 (single isomer, unassigned) [Example 543] | 1000 to 100000 nM
49 | COCc1cc(C(=O)Nc2cc([C@H]3CC[C@@H](Oc4nncc5cnccc45)C3)[nH]n2)n(C)n1 (single isomer, unassigned) [Example 534] | ≤ 100 nM
50 | Cn1nc(CO)cc1C(=O)Nc1cc([C@H]2C[C@@H](OC(=O)NC3(C)CC3)CO2)[nH]n1 [Example 902] | 250 to 1000 nM
51 | c1c(Nc2ncc3c(n2)C2CCC3C2)n[nH]c1C1CCCC1 (centres unmarked) [Example 794] | 1000 to 100000 nM
52 | COCc1cc2c(Nc3cc([C@H]4C[C@@H](OC(=O)N[C@H](C)C5CC5)CO4)[nH]n3)nccn2n1 [Example 655] | ≤ 100 nM
53 | Cc1cc(CC(=O)Nc2cc([C@H]3CC[C@@H](NC(=O)OC(C)C)C3)[nH]n2)on1 (single isomer, unassigned) [Example 143] | 1000 to 100000 nM
54 | COCc1cc(C(=O)Nc2cc([C@H]3CC[C@H](c4ccc(C)nn4)C3)[nH]n2)n(C)n1 (single isomer, unassigned) [Example 575] | 1000 to 100000 nM
55 | CC(C)NC(=O)O[C@@H]1CC[C@H](c2cc(NC(=O)c3cc(CN4CC(F)(F)C4)nn3C)n[nH]2)C1 [Example 672] | ≤ 100 nM
56 | COCc1nc2ccnc(Nc3cc([C@H]4CC[C@@H](Oc5nnccc5C(C)C)C4)[nH]n3)c2s1 (single isomer, unassigned) [Example 444] | ≤ 100 nM
57 | CC(C)NC(=O)O[C@@H]1CO[C@H](c2cc(Nc3nccc4ncsc34)n[nH]2)C1 [Example 434] | 100 to 250 nM
58 | Cn1nc(COC(F)(F)F)cc1C(=O)Nc1cc([C@H]2C[C@@H](OC(=O)NC(C)(C)C)CO2)[nH]n1 [Example 713] | ≤ 100 nM
59 | Cc1cc(CC(=O)Nc2cc([C@H]3CC[C@@H](OC(=O)N4CC5CC(C5)C4)C3)[nH]n2)on1 [Example 663] | ≤ 100 nM
60 | CC1(NC(=O)O[C@H]2CO[C@@H](c3cc(Nc4ccn5nccc5n4)n[nH]3)C2)CC1 [Example 727] | ≤ 100 nM
61 | CC1(NC(=O)O[C@H]2CO[C@@H](c3cc(Nc4ccn5c(Cl)nnc5n4)n[nH]3)C2)CC1 [Example 755] | 250 to 1000 nM
62 | COc1cccc2ccc(Nc3cc(C4CCCC4)[nH]n3)nc12 [Example 868] | 1000 to 100000 nM
63 | Cn1cnc2c(Nc3cc([C@H]4C[C@@H](OC(=O)NC5(C)CC5)CO4)[nH]n3)nccc21 [Example 743] | 1000 to 100000 nM
64 | Cc1cc(CC(=O)Nc2cc([C@H]3C[C@@H](COC(=O)NC(C)C)C3)[nH]n2)on1 [Example 125] | ≤ 100 nM
65 | Cc1cc(CC(=O)Nc2ncc([C@H]3CC[C@@H](OC(=O)NC(C)C)C3)s2)on1 (single isomer, unassigned) [Example 442] | ≤ 100 nM
